Assay results: ChEMBL document CHEMBL3045406, “Enantioselective Relieving Activity of α-Methylbenzylphenylureas toward Bensulfuron-methyl Injury to Rice (Oryza sativa)” (Biosci Biotechnol Biochem, 1999)

Tested on: Oryza sativa
Assay: Effect on Oryza sativa (rice) assessed as growth rate at 0.1 uM relative to control
Type: organism-based
Conditions: in vivo

Compound | Activity [%]
CCCCCc1ccc(NC(=O)N[C@H](C)c2ccccc2)cc1 | 100
CC(=O)c1cccc(NC(=O)N[C@H](C)c2ccccc2)c1 | 98
CCOC(=O)c1cccc(NC(=O)N[C@@H](C)c2ccccc2)c1 | 100
C[C@@H](NC(=O)Nc1cccc(Cl)c1Cl)c1ccccc1 | 100
C[C@H](NC(=O)Nc1c(Cl)cccc1Cl)c1ccccc1 | 100
C[C@H](NC(=O)Nc1ccc(F)cc1F)c1ccccc1 | 101
C[C@@H](NC(=O)Nc1cccc(I)c1)c1ccccc1 | 81
C[C@H](NC(=O)Nc1ccc(C(F)(F)F)cc1)c1ccccc1 | 94
CC(C)c1cccc(NC(=O)N[C@H](C)c2ccccc2)c1 | 74
C[C@H](NC(=O)Nc1cccc(F)c1F)c1ccccc1 | 100
CC(=O)c1ccccc1NC(=O)N[C@@H](C)c1ccccc1 | 100
COc1ccc(NC(=O)N[C@H](C)c2ccccc2)cc1 | 109
CC(C)c1cccc(NC(=O)N[C@@H](C)c2ccccc2)c1 | 95
C[C@H](NC(=O)Nc1ccccc1Br)c1ccccc1 | 101
C[C@H](NC(=O)Nc1cc(C(F)(F)F)cc(C(F)(F)F)c1)c1ccccc1 | 101

Tested on: Oryza sativa
Assay: Effect on Oryza sativa (rice) assessed as growth rate at 1 uM relative to control
Type: organism-based
Conditions: in vivo

Compound | Activity [%]
CCCCCc1ccc(NC(=O)N[C@H](C)c2ccccc2)cc1 | 101
CC(=O)c1cccc(NC(=O)N[C@H](C)c2ccccc2)c1 | 88
CCOC(=O)c1cccc(NC(=O)N[C@@H](C)c2ccccc2)c1 | 99
C[C@@H](NC(=O)Nc1cccc(Cl)c1Cl)c1ccccc1 | 100
C[C@H](NC(=O)Nc1c(Cl)cccc1Cl)c1ccccc1 | 99
C[C@H](NC(=O)Nc1ccc(F)cc1F)c1ccccc1 | 100
C[C@@H](NC(=O)Nc1cccc(I)c1)c1ccccc1 | 75
C[C@H](NC(=O)Nc1ccc(C(F)(F)F)cc1)c1ccccc1 | 94
CC(C)c1cccc(NC(=O)N[C@H](C)c2ccccc2)c1 | 61
C[C@H](NC(=O)Nc1cccc(F)c1F)c1ccccc1 | 100
CC(=O)c1ccccc1NC(=O)N[C@@H](C)c1ccccc1 | 97
COc1ccc(NC(=O)N[C@H](C)c2ccccc2)cc1 | 101
CC(C)c1cccc(NC(=O)N[C@@H](C)c2ccccc2)c1 | 84
C[C@H](NC(=O)Nc1ccccc1Br)c1ccccc1 | 99
C[C@H](NC(=O)Nc1cc(C(F)(F)F)cc(C(F)(F)F)c1)c1ccccc1 | 95

Tested on: Oryza sativa
Assay: Effect on Oryza sativa (rice) assessed as growth rate at 10 uM relative to control
Type: organism-based
Conditions: in vivo

Compound | Activity [%]
CCCCCc1ccc(NC(=O)N[C@H](C)c2ccccc2)cc1 | 97
CC(=O)c1cccc(NC(=O)N[C@H](C)c2ccccc2)c1 | 73
CCOC(=O)c1cccc(NC(=O)N[C@@H](C)c2ccccc2)c1 | 96
C[C@@H](NC(=O)Nc1cccc(Cl)c1Cl)c1ccccc1 | 99
C[C@H](NC(=O)Nc1c(Cl)cccc1Cl)c1ccccc1 | 99
C[C@H](NC(=O)Nc1ccc(F)cc1F)c1ccccc1 | 99
C[C@@H](NC(=O)Nc1cccc(I)c1)c1ccccc1 | 73
C[C@H](NC(=O)Nc1ccc(C(F)(F)F)cc1)c1ccccc1 | 94
CC(C)c1cccc(NC(=O)N[C@H](C)c2ccccc2)c1 | 44
C[C@H](NC(=O)Nc1cccc(F)c1F)c1ccccc1 | 100
CC(=O)c1ccccc1NC(=O)N[C@@H](C)c1ccccc1 | 96
COc1ccc(NC(=O)N[C@H](C)c2ccccc2)cc1 | 93
CC(C)c1cccc(NC(=O)N[C@@H](C)c2ccccc2)c1 | 86
C[C@H](NC(=O)Nc1ccccc1Br)c1ccccc1 | 102
C[C@H](NC(=O)Nc1cc(C(F)(F)F)cc(C(F)(F)F)c1)c1ccccc1 | 86

Tested on: Oryza sativa
Assay: Relieving activity against bensulfuron-methyl induced injury to Oryza sativa (rice) assessed as growth rate at 10 uM (Rbv = 46 to 53%)
Type: functional
Conditions: not given

Compound | Activity [%]
CCCCCc1ccc(NC(=O)N[C@H](C)c2ccccc2)cc1 | 69
CC(=O)c1cccc(NC(=O)N[C@H](C)c2ccccc2)c1 | 62
CCOC(=O)c1cccc(NC(=O)N[C@@H](C)c2ccccc2)c1 | 95
C[C@@H](NC(=O)Nc1cccc(Cl)c1Cl)c1ccccc1 | 89
C[C@H](NC(=O)Nc1c(Cl)cccc1Cl)c1ccccc1 | 74
C[C@H](NC(=O)Nc1ccc(F)cc1F)c1ccccc1 | 93
C[C@@H](NC(=O)Nc1cccc(I)c1)c1ccccc1 | 71
C[C@H](NC(=O)Nc1ccc(C(F)(F)F)cc1)c1ccccc1 | 93
CC(C)c1cccc(NC(=O)N[C@H](C)c2ccccc2)c1 | 43
C[C@H](NC(=O)Nc1cccc(F)c1F)c1ccccc1 | 93
CC(=O)c1ccccc1NC(=O)N[C@@H](C)c1ccccc1 | 73
COc1ccc(NC(=O)N[C@H](C)c2ccccc2)cc1 | 78
CC(C)c1cccc(NC(=O)N[C@@H](C)c2ccccc2)c1 | 68
C[C@H](NC(=O)Nc1ccccc1Br)c1ccccc1 | 98
C[C@H](NC(=O)Nc1cc(C(F)(F)F)cc(C(F)(F)F)c1)c1ccccc1 | 69

Tested on: Oryza sativa
Assay: Safener indices, ratio of compound effect of Oryza sativa (rice) growth rate to relieving activity against bensulfuron-methyl induced injury to Oryza sativa growth rate at 0.1 uM
Conditions: not given

Compound | Ratio
CCCCCc1ccc(NC(=O)N[C@H](C)c2ccccc2)cc1 | 3
CC(=O)c1cccc(NC(=O)N[C@H](C)c2ccccc2)c1 | 5
CCOC(=O)c1cccc(NC(=O)N[C@@H](C)c2ccccc2)c1 | 44
C[C@@H](NC(=O)Nc1cccc(Cl)c1Cl)c1ccccc1 | 14
C[C@H](NC(=O)Nc1c(Cl)cccc1Cl)c1ccccc1 | 21
C[C@H](NC(=O)Nc1ccc(F)cc1F)c1ccccc1 | 28
C[C@@H](NC(=O)Nc1cccc(I)c1)c1ccccc1 | 26
C[C@H](NC(=O)Nc1ccc(C(F)(F)F)cc1)c1ccccc1 | 36
CC(C)c1cccc(NC(=O)N[C@H](C)c2ccccc2)c1 | 16
C[C@H](NC(=O)Nc1cccc(F)c1F)c1ccccc1 | 36
CC(=O)c1ccccc1NC(=O)N[C@@H](C)c1ccccc1 | 9
COc1ccc(NC(=O)N[C@H](C)c2ccccc2)cc1 | -11
CC(C)c1cccc(NC(=O)N[C@@H](C)c2ccccc2)c1 | 6
C[C@H](NC(=O)Nc1ccccc1Br)c1ccccc1 | 32
C[C@H](NC(=O)Nc1cc(C(F)(F)F)cc(C(F)(F)F)c1)c1ccccc1 | 13

Tested on: Oryza sativa
Assay: Relieving activity against bensulfuron-methyl induced injury to Oryza sativa (rice) assessed as growth rate at 0.1 uM (Rbv = 46 to 53%)
Type: functional
Conditions: not given

Compound | Activity [%]
CCCCCc1ccc(NC(=O)N[C@H](C)c2ccccc2)cc1 | 54
CC(=O)c1cccc(NC(=O)N[C@H](C)c2ccccc2)c1 | 50
CCOC(=O)c1cccc(NC(=O)N[C@@H](C)c2ccccc2)c1 | 72
C[C@@H](NC(=O)Nc1cccc(Cl)c1Cl)c1ccccc1 | 59
C[C@H](NC(=O)Nc1c(Cl)cccc1Cl)c1ccccc1 | 62
C[C@H](NC(=O)Nc1ccc(F)cc1F)c1ccccc1 | 65
C[C@@H](NC(=O)Nc1cccc(I)c1)c1ccccc1 | 57
C[C@H](NC(=O)Nc1ccc(C(F)(F)F)cc1)c1ccccc1 | 67
CC(C)c1cccc(NC(=O)N[C@H](C)c2ccccc2)c1 | 45
C[C@H](NC(=O)Nc1cccc(F)c1F)c1ccccc1 | 68
CC(=O)c1ccccc1NC(=O)N[C@@H](C)c1ccccc1 | 53
COc1ccc(NC(=O)N[C@H](C)c2ccccc2)cc1 | 53
CC(C)c1cccc(NC(=O)N[C@@H](C)c2ccccc2)c1 | 47
C[C@H](NC(=O)Nc1ccccc1Br)c1ccccc1 | 67
C[C@H](NC(=O)Nc1cc(C(F)(F)F)cc(C(F)(F)F)c1)c1ccccc1 | 57

Tested on: not listed separately
Assay: Hydrophobicity, log K of the compound
Type: physicochemical
Conditions: octanol/water

Compound | log K
CCCCCc1ccc(NC(=O)N[C@H](C)c2ccccc2)cc1 | 0.912
CC(=O)c1cccc(NC(=O)N[C@H](C)c2ccccc2)c1 | 0.245
CCOC(=O)c1cccc(NC(=O)N[C@@H](C)c2ccccc2)c1 | 0.419
C[C@@H](NC(=O)Nc1cccc(Cl)c1Cl)c1ccccc1 | 0.646
C[C@H](NC(=O)Nc1c(Cl)cccc1Cl)c1ccccc1 | 0.326
C[C@H](NC(=O)Nc1ccc(F)cc1F)c1ccccc1 | 0.394
C[C@@H](NC(=O)Nc1cccc(I)c1)c1ccccc1 | 0.568
C[C@H](NC(=O)Nc1ccc(C(F)(F)F)cc1)c1ccccc1 | 0.537
CC(C)c1cccc(NC(=O)N[C@H](C)c2ccccc2)c1 | 0.58
C[C@H](NC(=O)Nc1cccc(F)c1F)c1ccccc1 | 0.435
CC(=O)c1ccccc1NC(=O)N[C@@H](C)c1ccccc1 | 0.432
COc1ccc(NC(=O)N[C@H](C)c2ccccc2)cc1 | 0.211
CC(C)c1cccc(NC(=O)N[C@@H](C)c2ccccc2)c1 | 0.58
C[C@H](NC(=O)Nc1ccccc1Br)c1ccccc1 | 0.504
C[C@H](NC(=O)Nc1cc(C(F)(F)F)cc(C(F)(F)F)c1)c1ccccc1 | 0.831

Tested on: Oryza sativa
Assay: Safener indices, ratio of compound effect of Oryza sativa (rice) growth rate to relieving activity against bensulfuron-methyl induced injury to Oryza sativa growth rate at 10 uM
Conditions: not given

Compound | Ratio
CCCCCc1ccc(NC(=O)N[C@H](C)c2ccccc2)cc1 | 38
CC(=O)c1cccc(NC(=O)N[C@H](C)c2ccccc2)c1 | 41
CCOC(=O)c1cccc(NC(=O)N[C@@H](C)c2ccccc2)c1 | 89
C[C@@H](NC(=O)Nc1cccc(Cl)c1Cl)c1ccccc1 | 78
C[C@H](NC(=O)Nc1c(Cl)cccc1Cl)c1ccccc1 | 47
C[C@H](NC(=O)Nc1ccc(F)cc1F)c1ccccc1 | 85
C[C@@H](NC(=O)Nc1cccc(I)c1)c1ccccc1 | 53
C[C@H](NC(=O)Nc1ccc(C(F)(F)F)cc1)c1ccccc1 | 86
CC(C)c1cccc(NC(=O)N[C@H](C)c2ccccc2)c1 | 29
C[C@H](NC(=O)Nc1cccc(F)c1F)c1ccccc1 | 87
CC(=O)c1ccccc1NC(=O)N[C@@H](C)c1ccccc1 | 50
COc1ccc(NC(=O)N[C@H](C)c2ccccc2)cc1 | 56
CC(C)c1cccc(NC(=O)N[C@@H](C)c2ccccc2)c1 | 47
C[C@H](NC(=O)Nc1ccccc1Br)c1ccccc1 | 97
C[C@H](NC(=O)Nc1cc(C(F)(F)F)cc(C(F)(F)F)c1)c1ccccc1 | 44

Tested on: Oryza sativa
Assay: Relieving activity against bensulfuron-methyl induced injury to Oryza sativa (rice) assessed as growth rate at 1 uM (Rbv = 46 to 53%)
Type: functional
Conditions: not given

Compound | Activity [%]
CCCCCc1ccc(NC(=O)N[C@H](C)c2ccccc2)cc1 | 65
CC(=O)c1cccc(NC(=O)N[C@H](C)c2ccccc2)c1 | 57
CCOC(=O)c1cccc(NC(=O)N[C@@H](C)c2ccccc2)c1 | 85
C[C@@H](NC(=O)Nc1cccc(Cl)c1Cl)c1ccccc1 | 80
C[C@H](NC(=O)Nc1c(Cl)cccc1Cl)c1ccccc1 | 69
C[C@H](NC(=O)Nc1ccc(F)cc1F)c1ccccc1 | 79
C[C@@H](NC(=O)Nc1cccc(I)c1)c1ccccc1 | 66
C[C@H](NC(=O)Nc1ccc(C(F)(F)F)cc1)c1ccccc1 | 85
CC(C)c1cccc(NC(=O)N[C@H](C)c2ccccc2)c1 | 48
C[C@H](NC(=O)Nc1cccc(F)c1F)c1ccccc1 | 88
CC(=O)c1ccccc1NC(=O)N[C@@H](C)c1ccccc1 | 65
COc1ccc(NC(=O)N[C@H](C)c2ccccc2)cc1 | 58
CC(C)c1cccc(NC(=O)N[C@@H](C)c2ccccc2)c1 | 55
C[C@H](NC(=O)Nc1ccccc1Br)c1ccccc1 | 87
C[C@H](NC(=O)Nc1cc(C(F)(F)F)cc(C(F)(F)F)c1)c1ccccc1 | 65

Tested on: Oryza sativa
Assay: Safener indices, ratio of compound effect of Oryza sativa (rice) growth rate to relieving activity against bensulfuron-methyl induced injury to Oryza sativa growth rate at 1 uM
Conditions: not given

Compound | Ratio
CCCCCc1ccc(NC(=O)N[C@H](C)c2ccccc2)cc1 | 27
CC(=O)c1cccc(NC(=O)N[C@H](C)c2ccccc2)c1 | 25
CCOC(=O)c1cccc(NC(=O)N[C@@H](C)c2ccccc2)c1 | 70
C[C@@H](NC(=O)Nc1cccc(Cl)c1Cl)c1ccccc1 | 58
C[C@H](NC(=O)Nc1c(Cl)cccc1Cl)c1ccccc1 | 36
C[C@H](NC(=O)Nc1ccc(F)cc1F)c1ccccc1 | 56
C[C@@H](NC(=O)Nc1cccc(I)c1)c1ccccc1 | 44
C[C@H](NC(=O)Nc1ccc(C(F)(F)F)cc1)c1ccccc1 | 72
CC(C)c1cccc(NC(=O)N[C@H](C)c2ccccc2)c1 | 27
C[C@H](NC(=O)Nc1cccc(F)c1F)c1ccccc1 | 75
CC(=O)c1ccccc1NC(=O)N[C@@H](C)c1ccccc1 | 35
COc1ccc(NC(=O)N[C@H](C)c2ccccc2)cc1 | 7
CC(C)c1cccc(NC(=O)N[C@@H](C)c2ccccc2)c1 | 26
C[C@H](NC(=O)Nc1ccccc1Br)c1ccccc1 | 74
C[C@H](NC(=O)Nc1cc(C(F)(F)F)cc(C(F)(F)F)c1)c1ccccc1 | 33
